Source: PMC2795317 (Journal of medicinal chemistry, 2009)

Test system: MDA-MB-231 breast cancer cells
Assay: Western blot analysis of caspase-8/-3 processing and PARP cleavage
Type: cell-based
Settings: 24 hours; for Concentration inducing processing of caspase-3 and -8 and cleavage of PARP: concentrations as low as

Row | Structure (SMILES) | Processing of caspase-8 and -3 and cleavage of PARP | Concentration inducing processing of caspase-3 and -8 and cleavage of PARP
1 | CN[C@@H](C)C(=O)N[C@H]1CCCC[C@H]2CC[C@@H](C(=O)NC(c3ccccc3)c3ccccc3)N2C1=O [Compound 7] | effectively induce processing of caspase-8 and -3 and cleavage of PARP in a dose-dependent manner | 
2 | CN[C@@H](C)C(=O)N[C@H]1CCCC[C@H]2[C@@H](Cc3ccccc3)C[C@@H](C(=O)N[C@@H]3CCCc4ccccc43)N2C1=O [Compound 10] | effectively induce processing of caspase-8 and -3 and cleavage of PARP in a dose-dependent manner | ≤ 10 nM
3 | CN[C@@H](C)C(=O)N[C@H]1CCCC[C@H]2CC[C@@H](C(=O)N[C@@H]3CCCc4ccccc43)N2C1=O [Compound 8] | effectively induce processing of caspase-8 and -3 and cleavage of PARP in a dose-dependent manner | ≤ 10 nM
